Experimental data reported in PMC6692352, “DF2726A, a new IL-8 signalling inhibitor, is able to counteract chemotherapy-induced neuropathic pain” (Scientific Reports, 2019).

How the values were obtained:
IL-8/CINC1 = IL-8/CINC1 immunofluorescence of paw sections of oxaliplatin rats; type: in vivo, male Wistar rats; conditions: 30 mg/kg os, rat paw sections
Method: Animals were sacrificed and a biopsy (3 mm) was taken from pad of the right hind paw. Biopsies were immediately placed in Zamboni’s fixative, where they were left at 4 °C. Tissues were then transferred to 20% sucrose for at least 24 h and used for immunohistochemistry analysis. Specimens were frozen in Optimal Cutting Temperature compound (OCT, Sakura Finetek Inc, CA, USA) and sliced into 20 μm thick serial coronal sections by cryostat AMES LAB-TEK (Westmont, Illinois, USA). […]
Five slices were examined for each animal. For each slide, 4 fields were counted. For quantitative evaluation of IL-8/CINC-1 (the homolog of IL-8 in rat) and […], photomicrographs for each condition were analysed by ImageJ software (National Institutes of Health, Bethesda, MD, USA) as previously described. […] The signal was first measured on the tissue in an area devoid of signal at visual inspection and assumed as background; the threshold was then set at 1.5 times the background and the surface area and mean grey intensity were measured for all areas above the threshold. […]

CYP 3A4 = CYP 3A4 (Homo sapiens, UniProt P08684); assay: CYP inhibition 3A4; type: in vitro ADME
From the text: Table 1 Physicochemical and in Vitro ADME Properties of DF2726A. | column: DF2726A

p-FAK = p-FAK western blotting in F11-derived neurons; type: cell-based; conditions: 24 h
[1] = Pharmacokinetics in the rat, intravenous and oral; type: in vivo, Sprague Dawley rats
Method: Pharmacokinetics studies in the rat
DF2726A was administered to male Sprague Dawley rats (Charles River Srl. Calco Italy, 6-8 weeks old, n = 4/groups) intravenously (5 mg/kg, Dulbecco’s phosphate buffered saline) and orally (5 mg/kg Dulbecco’s phosphate buffered saline).
On day of treatment, an exact amount of DF2726A was dissolved in the appropriate volume of vehicle to obtain a final concentration of 2.0 mg/mL (IV) and 1 mg/mL (OS). Both of the formulations were filtered at 0.45 μm filter before use in animals.
After the administration of DF2726A, a 0.15-0.20 mL of blood was collected via jugular vein catheters with zero-dead volume disposable syringes (1 mL iv Insulin syringes with attached 25G […]
5/8 inch needles; Chemil s.r.l., Padova, Italy) at 0.08, 0.5, 1, 3, 6, 12, 24, 36 and 48 h for i.v. dosing and at 0.25, 0.5, 1, 3, 6, 12, 24, 36 and 48 h for oral dosing. After each blood withdrawal, the catheters were washed with 0.15-0.2 mL of sterile physiological saline and filled with 0.03 mL of heparin saline solution (0.25 U.I/mL). The heparinized blood was immediately centrifuged (8000 RPM for 5 min at approximately 4°C) and the resultant plasma transferred into vials and stored at - 20°C until analysis. DF2726A concentrations were quantified by HLPC-MS/MS using a chromatographic method with a lower limit of quantitation of 1 ng·mL -1. Non-compartmental analysis (Gibaldi and Perrier, 1982) were used to calculate the pharmacokinetic parameters using a MKModel by Nick Holford software Version 4, (Biosoft, Ferguson, MO 63 135, USA). […]

[2] = single 5 mg/kg intravenous dose

Sequence of CYP 3A4 (P08684 whole entry): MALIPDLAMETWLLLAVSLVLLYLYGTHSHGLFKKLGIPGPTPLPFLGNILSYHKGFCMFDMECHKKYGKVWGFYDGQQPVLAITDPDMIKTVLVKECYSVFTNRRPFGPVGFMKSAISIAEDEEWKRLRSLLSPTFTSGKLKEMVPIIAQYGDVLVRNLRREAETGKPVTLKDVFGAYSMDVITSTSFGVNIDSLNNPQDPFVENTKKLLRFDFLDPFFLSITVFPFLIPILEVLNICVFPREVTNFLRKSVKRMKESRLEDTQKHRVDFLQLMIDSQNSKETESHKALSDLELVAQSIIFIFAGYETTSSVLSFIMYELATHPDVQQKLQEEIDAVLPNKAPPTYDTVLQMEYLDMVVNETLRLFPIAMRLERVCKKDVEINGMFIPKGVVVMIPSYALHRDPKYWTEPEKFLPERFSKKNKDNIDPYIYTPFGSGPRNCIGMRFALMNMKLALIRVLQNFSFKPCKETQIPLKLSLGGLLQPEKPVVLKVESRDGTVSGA

CC(C)(C(=O)O)c1ccc(Nc2nc(C(F)(F)F)cs2)cc1 [DF2726A]
Effect on oxaliplatin-increased IL-8/CINC1 signalling in the dermis (IL-8/CINC1): significantly attenuated
IC50 (CYP 3A4): > 30 µM
p-FAK levels, oxaliplatin-treated neurons (p-FAK; DF2726A 1 µM + oxaliplatin 20 µM): decreased in the presence of DF2726A
p-FAK levels, paclitaxel-treated neurons (p-FAK; DF2726A + paclitaxel 10 nM): decreased in the presence of DF2726A
AUC0-last Oral ([1]; 5 mg/kg oral dose): 136.3 ± 22.6 µg·h/mL
Cmax Oral ([1]; 5 mg/kg oral dose): 6860 ± 1600 ng/mL
t1/2 Oral ([1]; 5 mg/kg oral dose): 16.2 ± 3.3 h
tmax Oral ([1]; 5 mg/kg oral dose): 6.0 h
F (oral bioavailability) ([1]; 5 mg/kg oral vs 5 mg/kg intravenous): 96.8%
AUC0-last Intravenous [1, 2]: 140.8 ± 24.9 µg·h/mL
CLtotal Intravenous [1, 2]: 0.62 ± 0.11 mL/min/kg
Vd Intravenous [1, 2]: 0.52 ± 0.09 L/kg
t1/2 Intravenous [1, 2]: 15.2 ± 3.8 h
